By IC50 is commonly meant the concentration that inhibits the measured activity by half.

From US7932270B2 (Cytokinetics, Inc., priority 2006, dated 2011) come the findings set out here.

T1 sequence (P02607 2-151): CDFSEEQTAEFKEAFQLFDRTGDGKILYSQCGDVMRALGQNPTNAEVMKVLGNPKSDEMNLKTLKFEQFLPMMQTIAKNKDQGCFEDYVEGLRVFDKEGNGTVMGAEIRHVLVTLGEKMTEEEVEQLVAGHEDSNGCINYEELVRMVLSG
T1 sequence (P10587 84-789): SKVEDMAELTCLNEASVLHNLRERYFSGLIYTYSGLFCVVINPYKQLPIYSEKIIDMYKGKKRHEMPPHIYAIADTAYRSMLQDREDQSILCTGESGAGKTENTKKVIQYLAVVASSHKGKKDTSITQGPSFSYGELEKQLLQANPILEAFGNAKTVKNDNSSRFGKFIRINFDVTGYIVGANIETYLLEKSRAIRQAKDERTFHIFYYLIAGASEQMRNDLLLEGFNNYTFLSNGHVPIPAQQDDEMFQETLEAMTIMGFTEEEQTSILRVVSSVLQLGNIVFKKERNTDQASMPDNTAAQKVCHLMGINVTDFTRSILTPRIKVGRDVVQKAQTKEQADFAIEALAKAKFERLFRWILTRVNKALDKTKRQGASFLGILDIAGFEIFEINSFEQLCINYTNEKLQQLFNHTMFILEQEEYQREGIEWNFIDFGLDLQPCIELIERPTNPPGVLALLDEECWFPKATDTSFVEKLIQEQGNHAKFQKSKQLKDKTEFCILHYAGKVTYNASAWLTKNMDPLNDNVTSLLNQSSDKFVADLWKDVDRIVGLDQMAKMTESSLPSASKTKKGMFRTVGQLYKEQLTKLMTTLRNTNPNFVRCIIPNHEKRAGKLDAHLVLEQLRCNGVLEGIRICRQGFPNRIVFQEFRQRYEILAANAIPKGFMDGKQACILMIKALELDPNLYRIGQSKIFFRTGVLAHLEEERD

The assay has as its target T1, chicken gizzard smooth muscle myosin subfragment-1 chemically crosslinked to cardiac or skeletal actin (Gallus gallus, UniProt P10587).
T1 construct: chicken gizzard smooth muscle myosin subfragment-1; from tissue; host or cells: chicken gizzard
In words: Smooth muscle myosin ATPase dose response assay (pyruvate kinase/horseradish peroxidase/pyruvate oxidase-coupled, amplex red fluorescence). The following applies: read-out: IC50 Arithmetic Mean. Type of assay: biochemical. The gist of the method: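 Inhibition is measured in a peroxidase/pyruvate oxidase-linked format at pH 7.00 and 22° C, 0.15 mM ATP final. Myosin input is titrated to a target turnover since active fraction differs between preparations.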
As for `N#Cc1ccccc1-c1ccc(C(=O)NCC2CCN(C(=O)CN)C2)c(NCCc2cccc(F)c2)n1` (centres unmarked) [N-{[1-(2-aminoacetyl)pyrrolidin-3-yl]methyl}(6-(2-cyanophenyl)-2-{[2-(3-fluorophenyl)ethyl]amino}(3-pyridyl))carboxamide], the IC50 turned out to be 203 nM. On to `N#Cc1ccccc1-c1ccc(C(=O)NCC2CCCN(CCN)C2=O)c(NCCc2cccc(F)c2)n1` (centres unmarked) [N-{[1-(2-aminoethyl)-2-oxo(3-piperidyl)]methyl}(6-(2-cyanophenyl)-2-{[2-(3-fluorophenyl)ethyl]amino}(3-pyridyl))carboxamide], for which the IC50 was determined as 31 nM. For `Cn1cc(-c2ccc(C(=O)NCc3ccn(CCN)n3)c(NCCc3cccc(F)c3)n2)cn1` [N-{[1-(2-aminoethyl)pyrazol-3-yl]methyl}(2-{[2-(3-fluorophenyl)ethyl]amino}-6-(1-methylpyrazol-4-yl)(3-pyridyl))carboxamide] the value was 1860 nM; for `NCCn1ccc(CNC(=O)c2ccc(-c3cc[nH]n3)nc2NCCc2cccc(F)c2)n1` [N-{[1-(2-aminoethyl)pyrazol-3-yl]methyl}(2-{[2-(3-fluorophenyl)ethyl]amino}-6-pyrazol-3-yl(3-pyridyl))carboxamide], 5510 nM. On to `NCCn1ccc(CNC(=O)c2ccc(-c3cn[nH]c3)nc2NCCc2cccc(F)c2)n1` [N-{[1-(2-aminoethyl)pyrazol-3-yl]methyl}(2-{[2-(3-fluorophenyl)ethyl]amino}-6-pyrazol-4-yl(3-pyridyl))carboxamide], for which the IC50 was found to be 1490 nM. Regarding `N#Cc1ccccc1-c1ccc(C(=O)NCc2ccn(CCN)n2)c(NCCc2cccc(F)c2)n1` [N-{[1-(2-aminoethyl)pyrazol-3-yl]methyl}(6-(2-cyanophenyl)-2-{[2-(3-fluorophenyl)ethyl]amino}(3-pyridyl))carboxamide], the IC50 amounted to 296 nM. As to `Cn1cc(-c2ccc(C(=O)NCc3ccnn3CCN)c(NCCc3cccc(F)c3)n2)cn1` [N-{[1-(2-aminoethyl)pyrazol-5-yl]methyl}(2-{[2-(3-fluorophenyl)ethyl]amino}-6-(1-methylpyrazol-4-yl)(3-pyridyl))carboxamide], the IC50 came out at 313 nM.

Take `NCCn1nccc1CNC(=O)c1ccc(-c2cc[nH]n2)nc1NCCc1cccc(F)c1` [N-{[1-(2-aminoethyl)pyrazol-5-yl]methyl}(2-{[2-(3-fluorophenyl)ethyl]amino}-6-pyrazol-3-yl(3-pyridyl))carboxamide]: the IC50 came out at 634 nM. As for `N#Cc1ccccc1-c1ccc(C(=O)NCc2ccnn2CCN)c(NCCc2cccc(F)c2)n1` [N-{[1-(2-aminoethyl)pyrazol-5-yl]methyl}(6-(2-cyanophenyl)-2-{[2-(3-fluorophenyl)ethyl]amino}(3-pyridyl))carboxamide], the IC50 was 32 nM. For `N#Cc1ccccc1-c1ccc(C(=O)NCC2CCCN2CCN)c(NCCc2cccc(F)c2)n1` (centres unmarked) [N-{[1-(2-aminoethyl)pyrrolidin-2-yl]methyl}(6-(2-cyanophenyl)-2-{[2-(3-fluorophenyl)ethyl]amino}(3-pyridyl))carboxamide] the value was 758 nM. The figure for `N#Cc1ccccc1-c1ccc(C(=O)NCC2CCN(C(=O)CCN)CC2)c(NCCc2cccc(F)c2)n1` [N-{[1-(3-aminopropanoyl)(4-piperidyl)]methyl}(6-(2-cyanophenyl)-2-{[2-(3-fluorophenyl)ethyl]amino}(3-pyridyl))carboxamide] is 3870 nM. For `N#Cc1ccccc1-c1ccc(C(=O)NCC2CCCCCN2C(=O)CCN)c(NCCc2cccc(F)c2)n1` (centres unmarked) [N-{[1-(3-aminopropanoyl)azaperhydroepin-2-yl]methyl}(6-(2-cyanophenyl)-2-{[2-(3-fluorophenyl)ethyl]amino}(3-pyridyl))carboxamide] the value was 256 nM; for `N#Cc1ccccc1-c1ccc(C(=O)NCC2CCN(C(=O)CCN)C2)c(NCCc2cccc(F)c2)n1` (centres unmarked) [N-{[1-(3-aminopropanoyl)pyrrolidin-3-yl]methyl}(6-(2-cyanophenyl)-2-{[2-(3-fluorophenyl)ethyl]amino}(3-pyridyl))carboxamide], 270 nM; for `Cn1cc(-c2ccc(C(=O)NCC3CCN(CCCN)C3=O)c(NCCc3cccc(F)c3)n2)cn1` (centres unmarked) [N-{[1-(3-aminopropyl)-2-oxopyrrolidin-3-yl]methyl}(2-{[2-(3-fluorophenyl)ethyl]amino}-6-(1-methylpyrazol-4-yl)(3-pyridyl))carboxamide], 5500 nM.

`NCCCN1CCC(CNC(=O)c2ccc(-c3cn[nH]c3)nc2NCCc2cccc(F)c2)C1=O` (centres unmarked) [N-{[1-(3-aminopropyl)-2-oxopyrrolidin-3-yl]methyl}(2-{[2-(3-fluorophenyl)ethyl]amino}-6-pyrazol-4-yl(3-pyridyl))carboxamide]: the IC50 worked out at 3130 nM. As to `N#Cc1ccccc1-c1ccc(C(=O)NCC2CCN(CCCN)C2=O)c(NCCc2cccc(F)c2)n1` (centres unmarked) [N-{[1-(3-aminopropyl)-2-oxopyrrolidin-3-yl]methyl}(6-(2-cyanophenyl)-2-{[2-(3-fluorophenyl)ethyl]amino}(3-pyridyl))carboxamide], the IC50 is 382 nM. Take `N#Cc1ccccc1-c1ccc(C(=O)NCC2CCCC(=O)N2CCCN)c(NCCc2cccc(F)c2)n1` (centres unmarked) [N-{[1-(3-aminopropyl)-6-oxo(2-piperidyl)]methyl}(6-(2-cyanophenyl)-2-{[2-(3-fluorophenyl)ethyl]amino}(3-pyridyl))carboxamide]: the 50% inhibitory concentration (IC50) amounted to 25 nM. For `N#Cc1ccccc1-c1ccc(C(=O)NCC2CCCCC(=O)N2CCCN)c(NCCc2cccc(F)c2)n1` (centres unmarked) [N-{[1-(3-aminopropyl)-7-oxoazaperhydroepin-2-yl]methyl}(6-(2-cyanophenyl)-2-{[2-(3-fluorophenyl)ethyl]amino}(3-pyridyl))carboxamide] the value was 273 nM; for `Cn1cc(-c2ccc(C(=O)NCc3ccn(CCCN)n3)c(NCCc3cccc(F)c3)n2)cn1` [N-{[1-(3-aminopropyl)pyrazol-3-yl]methyl}(2-{[2-(3-fluorophenyl)ethyl]amino}-6-(1-methylpyrazol-4-yl)(3-pyridyl))carboxamide], 2690 nM.

As for `NCCCn1ccc(CNC(=O)c2ccc(-c3cc[nH]n3)nc2NCCc2cccc(F)c2)n1` [N-{[1-(3-aminopropyl)pyrazol-3-yl]methyl}(2-{[2-(3-fluorophenyl)ethyl]amino}-6-pyrazol-3-yl(3-pyridyl))carboxamide], the IC50 is 3760 nM. With `NCCCn1ccc(CNC(=O)c2ccc(-c3cn[nH]c3)nc2NCCc2cccc(F)c2)n1` [N-{[1-(3-aminopropyl)pyrazol-3-yl]methyl}(2-{[2-(3-fluorophenyl)ethyl]amino}-6-pyrazol-4-yl(3-pyridyl))carboxamide], the IC50 was found to be 1410 nM. As for `N#Cc1ccccc1-c1ccc(C(=O)NCc2ccn(CCCN)n2)c(NCCc2cccc(F)c2)n1` [N-{[1-(3-aminopropyl)pyrazol-3-yl]methyl}(6-(2-cyanophenyl)-2-{[2-(3-fluorophenyl)ethyl]amino}(3-pyridyl))carboxamide], the IC50 worked out at 65 nM. The figure for `Cn1cc(-c2ccc(C(=O)NCc3ccnn3CCCN)c(NCCc3cccc(F)c3)n2)cn1` [N-{[1-(3-aminopropyl)pyrazol-5-yl]methyl}(2-{[2-(3-fluorophenyl)ethyl]amino}-6-(1-methylpyrazol-4-yl)(3-pyridyl))carboxamide] is 228 nM.
